Measured values as given in patent US9750724B2, “Use of an aromatase inhibitor for the treatment of hypogonadism and related diseases” (Mereo BioPharma 2 Limited, priority 2011, dated 2017).

Experiments:
[1] = test system: estrone, estrone sulfate and estradiol; test: Single ascending dose study in women, pharmacodynamics (estrogen suppression); type: in vivo, human
Protocol: Patients received either 0.1 mg, 1 mg, and 10 mg drug substance containing hard gelatin capsules or appropriate matching placebo capsules.
A minimal toxic dose (MTD) was not reached. […] Table 3 presents the PK parameters based on preliminary analysis of the concentration-time profile obtained from this study.

[2] = test system: serum testosterone and estradiol; test: 12 week open label dose-finding study (Part 1) in obese hypogonadotropic hypogonadal men; type: in vivo, human
Excerpt: The study is designed as a 2-part study, with Part 1 being open-label to best determine the appropriate dose levels to use in Part 2, which has a randomized, double-blind, placebo controlled design.
As set out above, this is a two-part study in obese, hypogonadotropic hypogonadal (OHH) men, wherein Part 1 is a single group, open label, non-randomized study establishing appropriate dosing. After all subjects have successfully completed 4 weeks of treatment, they continue for up to a total of 12 weeks of treatment. Then Part 2 follows as a parallel group, randomized, double-blind, placebo-controlled design, for 12 weeks of treatment, with an interim analysis after 4 weeks of treatment. Both Parts of the study have up to a 28 day screening period, a single baseline day, a 12 week treatment period (11 weekly doses), followed by a 3 month follow-up period.
Thus, for Part 1 of the study, it was decided to start with 0.01 mg as the loading dose, assess the testosterone response at 5 or 6 days after a single dose, and adjust the next weekly dose up or down based on the acute testosterone response. The weekly maintenance dose is not expected to exceed 0.5 mg. For at least the first 4 weeks of treatment, subject's sex steroid levels are measured prior to their subsequent dosing. The subsequent dose is the adjusted based on the prior response.
If free testosterone is above normal, the Week 2 dose will be 1/10 (0.001 mg) of the loading dose. If free testosterone is below normal, the Week 2 dose will be ½ of the loading dose (0.005 mg). Subsequent weekly doses are adjusted on a ½ log order to achieve normalization of free testosterone levels.
Assessments and evaluations: The following assessments will be performed during the study: • 1. Background, demographic and administrative assessments • Inclusion/exclusion criteria; Relevant medical history/Current medical conditions • Demography • Physical examination, including digital prostate examination • International Prostate Symptom Score (IPSS) • Hepatitis screen, HIV screen • Alcohol test, Drug screen • Prolactin, ferritin and thyroid stimulating hormone (TSH) • Drug administration: each time study drug is administered • Study Completion information • Comments • 2. Safety and tolerability assessments • Vital signs and body measurements • Body height (BMI will be calculated) • Body weight* • Body temperature • Blood pressure, pulse rate • ECG evaluations • Hematology; Blood chemistry; Urinalysis • Prostate specific antigen (PSA) • Adverse events: from time of first administration of study drug until Study Completion. Adverse events occurring before starting study treatment but after signing the informed consent form are recorded on the Medical History/Current Medical Conditions Case Report Form. • Serious adverse events: from time of consent until 30 days after Study Completion • Concomitant medications/Significant non-drug therapies: Refer to entry criteria and Concomitant medication for details of recording requirements for allowed and restricted medications during the study. • 3. Pharmacokinetic (PK) blood assessments: PK samples will be collected on multiple occasions during the treatment phase of the study. PK assessments will also be collected every 6 weeks during the safety follow-up period. […]

[3] = biological target: T1, human placental microsomal aromatase (Homo sapiens, UniProt P11511); conditions: microsomal fraction of human placenta; Batzl-Hartmann et al, 1994; cited from earlier work
T1 construct: from tissue; host or cells: human placenta, microsomal fraction
T1 sequence (P11511 1-503): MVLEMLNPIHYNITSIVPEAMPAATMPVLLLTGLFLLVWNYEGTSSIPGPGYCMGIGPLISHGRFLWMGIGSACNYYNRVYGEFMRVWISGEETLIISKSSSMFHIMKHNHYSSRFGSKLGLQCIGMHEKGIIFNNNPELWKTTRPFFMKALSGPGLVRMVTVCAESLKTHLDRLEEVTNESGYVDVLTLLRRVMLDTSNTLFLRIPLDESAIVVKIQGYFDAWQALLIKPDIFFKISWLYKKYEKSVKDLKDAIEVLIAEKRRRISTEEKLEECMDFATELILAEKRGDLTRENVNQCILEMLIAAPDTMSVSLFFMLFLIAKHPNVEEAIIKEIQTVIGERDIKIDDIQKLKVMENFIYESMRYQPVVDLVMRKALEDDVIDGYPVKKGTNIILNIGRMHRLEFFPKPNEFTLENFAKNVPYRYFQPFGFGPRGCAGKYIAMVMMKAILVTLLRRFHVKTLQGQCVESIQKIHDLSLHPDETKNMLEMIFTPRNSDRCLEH

[4] = previous rat experiments; Batzl-Hartmann 1994, Bhatnagar 1996; cited from earlier work
aromatase = biological target: T2, aromatase (Rattus norvegicus, UniProt P22443); conditions: once weekly administration, adult female rats; Batzl-Hartmann et al, 1994; cited from earlier work
T2 construct: host or cells: adult female rats (whole animal, endogenous enzyme)
T2 sequence (P22443 1-508): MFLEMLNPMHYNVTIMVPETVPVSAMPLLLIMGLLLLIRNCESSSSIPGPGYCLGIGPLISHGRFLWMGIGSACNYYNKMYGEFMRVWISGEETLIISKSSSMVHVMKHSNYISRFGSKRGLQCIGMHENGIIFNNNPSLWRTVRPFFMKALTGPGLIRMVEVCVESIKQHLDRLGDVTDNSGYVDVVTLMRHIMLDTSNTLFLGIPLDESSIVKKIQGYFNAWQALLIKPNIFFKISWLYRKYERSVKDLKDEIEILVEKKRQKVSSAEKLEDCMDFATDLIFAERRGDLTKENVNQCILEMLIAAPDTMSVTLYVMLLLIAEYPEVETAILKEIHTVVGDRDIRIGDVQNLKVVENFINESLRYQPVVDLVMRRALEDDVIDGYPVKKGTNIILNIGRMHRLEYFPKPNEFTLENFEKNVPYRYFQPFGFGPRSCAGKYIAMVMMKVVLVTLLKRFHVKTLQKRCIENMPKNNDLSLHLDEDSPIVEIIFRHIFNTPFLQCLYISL

[5] = weekly oral doses 0.003 mg to 5 mg

SMILES: N#Cc1ccc(C(F)(c2ccc(C#N)cc2)n2cncn2)cc1 [CGP47645, 4,4′-[fluoro-(1-H-1,2,4-triazol-1-yl)methylene]bisbenzonitrile]
- estrone suppression compared with letrozole ([1]; postmenopausal women, doses of 0.1 mg and 0.3 mg, letrozole 2.5 mg): at least equal to letrozole
- inhibition of estrone, estrone sulfate and estradiol ([1]; single doses, women): dose-dependent inhibition
- tolerability ([2]; 14 obese hypogonadal men, weekly oral doses 0.003 mg to 5 mg, 12 weeks): tolerated CGP47645 well
- testosterone normalization (RIA) ([2]; 14 obese hypogonadal men, weekly oral doses 0.003 mg to 5 mg, during treatment): rose in all men individually into the normal range
- average serum estradiol at week 12 ([2]; baseline 24±4.9 pg/mL, LC-MS): 18 ± 9.4 pg/mL
- average testosterone at week 12 ([2]; baseline 250±22.3 ng/dL, RIA): 550 ± 191.8 ng/dL
- average change of testosterone from baseline to week 12 [2, 5]: approximately 2 fold
- reduction of serum estradiol (LC-MS) [2, 5]: 30-50%
- mode of aromatase inhibition [3]: competitive inhibitor
- half-life [4]: about a week
- effective dose achieving medical castration (aromatase): 3 mg/kg
